# Values joined by “and” are separate entries in the source; they are usually repeats but may differ in a detail not shown here. Equal values may be shown once.
# Tests used:
# [1] = Mice despair test; type: in vivo; conditions: mouse, controls 165 ± 15, p < 0.01
# Description: This test, described by Porsolt et al. (Arch. Int. Pharmacodyn. Ther, 299, 327 (1977), enables the antidepressant properties of the claimed compounds to be evaluated.
# Mice are treated with increasing doses of the compounds thirty minutes before the test, and the immobility of the animals is measured relative to controls which receive only the vehicle. The immobility time is decreased by the compounds according to the invention, and this effect is antagonized by naloxame (0.5 mg/kg s.c.).
# [2] = Locomotor activity (righting movements) after long-term sulpiride; type: in vivo, rats; conditions: rat, after three weeks of sulpiride, control rat 100%
# Description: c) Potentiation of the behavioral effects (locomotor hyperactivity) induced by the compounds according to the invention after long-term treatment with […]: 1 h after i.v. or p.o. administration in rats, the compounds according to the invention induce an increase in locomotor activity. […] This potentiation is not apparent until three weeks after the beginning of the treatment with neuroleptics.
# [3] = biological target: T1, purified porcine kidney aminopeptidase N (Sus scrofa, UniProt P15145); assay: In vitro inhibitory potency against aminopeptidase N; type: biochemical; conditions: purified porcine kidney enzyme, (3H)-Leu5-enkephalin, DTT
# T1 construct: purchased Boehringer, France; host or cells: porcine kidney
# T1 sequence (P15145 1-963): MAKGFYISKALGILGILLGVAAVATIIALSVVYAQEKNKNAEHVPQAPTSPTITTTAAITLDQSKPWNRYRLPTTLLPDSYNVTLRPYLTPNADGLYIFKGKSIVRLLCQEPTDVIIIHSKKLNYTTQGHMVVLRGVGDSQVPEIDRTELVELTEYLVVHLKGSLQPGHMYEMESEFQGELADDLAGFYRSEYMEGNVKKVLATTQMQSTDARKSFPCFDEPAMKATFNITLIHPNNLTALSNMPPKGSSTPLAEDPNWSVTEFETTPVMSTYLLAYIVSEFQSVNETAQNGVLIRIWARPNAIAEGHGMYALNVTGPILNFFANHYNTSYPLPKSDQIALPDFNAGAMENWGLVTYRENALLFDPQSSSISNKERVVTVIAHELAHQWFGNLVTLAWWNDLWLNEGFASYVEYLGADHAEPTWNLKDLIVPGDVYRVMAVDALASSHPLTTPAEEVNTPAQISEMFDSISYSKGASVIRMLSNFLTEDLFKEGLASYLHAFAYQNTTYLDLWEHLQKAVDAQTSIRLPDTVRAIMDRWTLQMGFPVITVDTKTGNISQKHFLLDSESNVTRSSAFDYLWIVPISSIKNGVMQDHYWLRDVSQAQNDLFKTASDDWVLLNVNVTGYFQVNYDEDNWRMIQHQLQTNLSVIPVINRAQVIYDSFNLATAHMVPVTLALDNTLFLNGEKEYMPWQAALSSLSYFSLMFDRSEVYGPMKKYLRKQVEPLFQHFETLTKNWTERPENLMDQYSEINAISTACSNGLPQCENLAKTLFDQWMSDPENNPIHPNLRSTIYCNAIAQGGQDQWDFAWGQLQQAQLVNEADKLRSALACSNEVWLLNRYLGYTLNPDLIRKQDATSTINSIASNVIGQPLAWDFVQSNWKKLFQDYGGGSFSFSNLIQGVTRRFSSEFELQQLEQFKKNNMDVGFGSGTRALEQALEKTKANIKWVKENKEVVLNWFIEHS
# Description: (§1) The biological activity relates to the inhibition of purified aminopeptidase N and of purified neutral endopeptidase.
# (§2) 1) In vitro inhibition of enkephalinase activities.
# b) Inhibitory potency against aminopeptidase N
# The inhibitory power is measured on purified porcine kidney aminopeptidase (Boehringer, France). The assay is performed in a manner identical to the above, using (^3 H)-Leu^5 -enkephalin as a substrate. The metabolite formed, (^3 H)-Tyr, is separated by chromatography on a Porapak column, and the quantity formed measured using a liquid scintillation counter.
# [4] = Hot plate test, i.p.; type: in vivo; conditions: mice
# Description: (§3) 1) Hot .plate test: This involves the licking and jumping reflex of the mouse on a plate heated to 55° C., according to the method of Jacob et al (Arch Int. Pharmacodyn. 122 287, 1959; 1961).
# 1.2 Administered i.p. in mice, the test compounds display a characteristic effect on the times of restraint of jumping and of licking. These effects are antagonized by naloxone (0.5 mg/kg).
# [5] = biological target: T2, purified rabbit kidney neutral endopeptidase (Oryctolagus cuniculus, UniProt P08049); assay: In vitro inhibitory potency against neutral endopeptidase; type: biochemical; conditions: purified rabbit kidney enzyme, (3H)-D-Ala2-Leu5-enkephalin, 25° C., pH 7.4, DTT 100 equivalents
# T2 construct: from tissue; host or cells: rabbit kidney (purified enzyme)
# T2 sequence (P08049 1-750): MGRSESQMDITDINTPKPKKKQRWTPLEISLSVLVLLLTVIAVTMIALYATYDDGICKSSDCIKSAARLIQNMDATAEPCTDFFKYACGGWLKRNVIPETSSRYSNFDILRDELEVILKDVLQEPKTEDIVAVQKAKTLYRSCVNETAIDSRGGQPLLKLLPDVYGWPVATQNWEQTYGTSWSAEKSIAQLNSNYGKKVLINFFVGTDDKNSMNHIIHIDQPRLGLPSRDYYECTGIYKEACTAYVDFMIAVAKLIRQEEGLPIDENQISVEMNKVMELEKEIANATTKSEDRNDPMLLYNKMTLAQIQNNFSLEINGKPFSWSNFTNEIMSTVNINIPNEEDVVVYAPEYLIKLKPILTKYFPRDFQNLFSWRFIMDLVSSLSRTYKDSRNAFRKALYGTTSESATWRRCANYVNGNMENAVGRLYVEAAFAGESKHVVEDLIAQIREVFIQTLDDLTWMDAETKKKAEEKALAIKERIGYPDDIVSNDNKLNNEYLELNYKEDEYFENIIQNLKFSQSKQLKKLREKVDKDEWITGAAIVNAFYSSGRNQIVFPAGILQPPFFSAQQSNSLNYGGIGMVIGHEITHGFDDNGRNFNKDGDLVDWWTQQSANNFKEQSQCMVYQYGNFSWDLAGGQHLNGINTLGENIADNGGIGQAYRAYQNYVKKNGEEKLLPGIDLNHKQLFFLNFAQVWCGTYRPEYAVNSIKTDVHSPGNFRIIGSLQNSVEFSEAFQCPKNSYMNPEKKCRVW
# Description: as §1, §2
# a) Inhibitory potency against neutral endopeptidase
# The inhibitory power is determined on purified rabbit kidney neutral endopeptidase following the protocol described in the literature (Blumberg et al. Life Sci. (1981) 28, 301). After a preincubation for 15 minutes at 25° C., an aliquot of proteins is incubated for 20 minutes at 25° C. in the presence of 20 nmol of (^3 H)-D-Ala^2 -Leu^5 -enkephalin and the test compound in solution in Tris-HCl buffer (pH 7.4) in the presence of dithiothreitol DTT (100 equivalents relative to the inhibitor). The reaction is stopped by adding 0.2 N HCl. The tritiated metabolite (^3 H)-Tyr-D-Ala-Gly is separated from the D-Ala^2 -Leu^5 -enkephalin by chromatography on a Porapak column, and the quantity formed measured using a liquid scintillation counter.
# The activity of the different compounds is expressed as 50% inhibitory concentrations (IC50), and the results are summarized in Table II.
# [6] = Tail flick test (withdrawal of the tail), i.v.; type: in vivo; conditions: rats, 10 mg/kg
# Description: 3) Test of withdrawal of the tail in rats: (tail flick test): administered i.v. in rats, the compounds according to the invention produce a significant extension of the time of withdrawal of the tail. These effects are antagonized by naloxone (0.5 mg/kg s.c.).
# The results are expressed as a % analgesia for the same dose (10 mg/kg) of all the compounds tested.
# [7] = Hot plate test, i.v.; type: in vivo; conditions: Mus musculus, iv, mice, hot plate 55° C., Table III 50% analgesia
# Description: as §3
# 1.1. Administered i.v. (100 μl in tail vein) in mice, the compounds tested display a characteristic effect both on the latency time of jumping and on latency time of licking. These effects are antagonized by naloxone (0.5 mg/kg s.c.).
# The results are expressed in Table III as a % analgesia. The percentage analgesia is expressed for each dose of compound tested by the following formula: [formula]
# [8] = test system: cerebral NEP; assay: In vivo inhibition of cerebral NEP; conditions: mice, i.v., 2.7 μmol/kg (Example 7: same conditions)
# Description: 2) "In vivo" inhibition of cerebral NEP
# The enzymatic activity of cerebral NEP is compared in mice untreated or treated with a given dose of compound (approximately 2.5 mg/kg injected intravenously. The animals are sacrificed at variable times after injection of the inhibitor, and the NEP activity is determined in the brain by measuring the degradation of (^3 H)-D-Ala^2 -Leu^5 -enkephalin.
# For the final compound of Example 1, injected at a dose of 2.7 μmol/kg (47.6 μg in 100 μl), the following results are obtained: […]
# [9] = Cross-tolerance with morphine, i.v. injection into morphine-tolerant animal; conditions: mouse or rat
# [10] = Test on abdominal cramps induced by phenylbenzoquinone, i.v.; type: in vivo
# Description: 2) Test on abdominal cramps
# (Hendershot and Forsaith. J. Pharmacol. (1975), 125, 237): This test measures the number of cramps induced by i.p. injection of 100 μl of a 0.02% solution of phenylbenzoquinone. The number of cramps is counted during 10 minutes, 10 minutes after the injection. Administered i.v., the compounds decrease the number of cramps.
# [11] = Tolerance after long-term administration, mice (% analgesia); type: in vivo; conditions: mouse, in vivo
# Description: (§4) e) Study of the tolerance and addiction effects induced by long-term administration of the compound of Example 8:
# (§5) 1) The compound 8 is administered s.c. four times per 24 hours at a dose of 5 mg/kg for 6 days to mice and at 10 mg/kg to rats.
# (§6) Morphine (hydrochloride) is administered under the same conditions (0.5 mg/kg in mice, 2 mg/kg in rats). The control animals receive only the vehicle.
# [12] = Addiction effects: naloxone-precipitated abstinence syndrome after long-term treatment; type: in vivo; conditions: rats, 6 days long-term treatment, naloxone 2 mg/kg s.c.; compared to morphine
# Description: as §5
# 2) After long-term treatment for 6 days under the conditions described above, the rats undergo an injection of 2 mg/kg of naloxane s.c. The signs of abstinence syndrome are measured according to Cowan et al. (J. Pharmacol. Exp. Ther. (1988) 246, 950).
# [13] = Tolerance after long-term administration, rats (% analgesia); type: in vivo; conditions: rat, in vivo
# Description: as §4, §5, §6
structure (smiles),measurement,setting,value
CSCCC(N)CSSCC(Cc1ccccc1)C(=O)NCC(=O)OCc1ccccc1 (stereo not drawn) [Example 5],Immobility time,[1]; 5 mg/kg i.p.,108 ± 12 s
same,Locomotor activity,"[2]; i.v., 5 mg/kg",400%
same,IC50,[3],2 nM
same,dose in i.p. hot plate table,[4],7 mg/kg
same,IC50,[5],2 nM
same,% analgesia (tail flick),[6],25%
same,ED50,[7],2.5 mg/kg
CSCCC(N)CSSCC(Cc1ccccc1)C(=O)NC(Cc1ccccc1)C(=O)OCc1ccccc1 (stereo not drawn) [Example 7],% inhibition cerebral NEP,[8]; 60',96 ± 5%
same,% inhibition cerebral NEP,[8]; 120',96 ± 4%
same,% inhibition cerebral NEP,[8]; 180',92 ± 4%
same,Locomotor activity,"[2]; i.v., 3 mg/kg",400%
same,analgesic response in morphine-tolerant animal,[9],analgesic response identical to that obtained in a control animal
same,cross-tolerance with morphine,[9],absence of cross-tolerance
same,dose in i.p. hot plate table,[4],8 mg/kg
same,IC50,[5],2.5 nM
same,% analgesia (tail flick),[6],42%
same,ED50,[7],5 mg/kg
same,% analgesia (abdominal cramps),[10]; 2.5 mg/kg,32% ± 4
same,% analgesia (abdominal cramps),[10]; 5 mg/kg,68% ± 9
same,% analgesia (abdominal cramps),[10]; 10 mg/kg,95% ± 4
C[S+]([O-])CCC(N)CSSCC(Cc1ccccc1)C(=O)NCC(=O)OCc1ccccc1 (stereo not drawn) [Example 8],% analgesia relative to the controls,[11],100 ± 10% and 100 ± 8% and 70 ± 15%
same,addiction effects,[12],very weak addiction effects
same,IC50,[3],2 nM
same,IC50,[5],2 nM
same,% analgesia relative to the controls,[13],40 ± 5% and 30 ± 7%
same,ED50,[7],2.5 mg/kg
C[S+]([O-])CCC(N)CSSCC(CC[S+](C)[O-])C(=O)NC(CC(=O)OCc1ccccc1)Cc1ccccc1 (stereo not drawn) [Example 30],Immobility time,[1]; 2 mg/kg i.p.,96 ± 8 s
same,Immobility time,[1]; 20 mg/kg p.o.,101 ± 10 s
same,Locomotor activity,"[2]; i.v. (so in the source), 20 mg/kg",370%
same,Locomotor activity,"[2]; i.v., 2 mg/kg",350%
same,IC50,[3],2 nM
same,IC50,[5],3 nM
same,ED50,[7],3 mg/kg

# Reference: patent US5491169A, “Amino acid derivatives and their therapeutical applications” (priority 1989, dated 1996)
